For series [1], the system named is histone H3 hyperacetylation in HeLa cervical carcinoma cells. Kind of series: Cellular histone H3 hyperacetylation assay. Format: cell-based. As to conditions: Homo sapiens, 24 h, only a range over the listed compounds is given, read-out: Induction of histone H3 hyperacetylation in HeLa cervical carcinoma cells EC50. The source says: To assess the cellular efficacy of a histone deacetylase inhibitor in vitro, an assay was set up in black clear-bottom 96-well plates and optimized for use on the Cellomics “ArrayScan II” platform for a quantitative calculation of histone acetylation. The protocol uses a polyclonal rabbit antibody, specifically binding to acetylated lysine 1-20 of human histone H3 on fixed cells with an Alexa Fluor 488 labeled goat anti rabbit-IgG used for counterstaining (Beckers et al. Int J. Cancer 121, 1138, 2007).
5×10^3 HeLa cervical carcinoma cells/well (ATCC. CCL-2) in 200 μl Dulbecco rs modified Eagle's medium (DMEM) containing 10% fetal calf serum are seeded at day 1 in Packard view plates and incubated for 24 h under standard cell culture conditions. On day 2, 1 μl test compound (200× final concentration) is added and incubation continued for further 24 h. On day 3, the culture medium is discarded and attached cells fixed for 15 min at room temperature by addition of 100 μl fixation buffer (3.7% v:v formaldehyde in phosphate buffered saline/PBS). After discarding the fixation buffer and one wash with blocking solution (1% BSA, 0.3% Tween 20 in PBS), cells are permeabilized at room temperature by addition of 100 μl/well permeabilization buffer (30.8 mM NaCl, 0.54 mM Na2HPO4, 0.31 mM KH2PO4, 0.1% v:v Triton X-100) for 15 min at room temperature. After discarding the permeabilization buffer and washing twice with 100 μl/well blocking solution at room temperature, the 1st antibody (anti-K^1-20 histone H3 antibody, Calbiochem No. 382158) in blocking solution (50 μl/well) is added. After incubation for 1 h at room temperature, the wells are washed twice at room temperature with 100 μl/well blocking solution before addition of the 2nd antibody (goat-anti-rabbit Alexa Fluor 488; MoBiTec No. A-11008) in blocking solution (50 μl/well). After further incubation for 1 h at room temperature, wells are washed twice with 100 μl/well blocking solution at room temperature. Finally, 100 μl/well PBS are added and image analysis performed on the Cellomics “ArrayScan II” platform. For EC50 determination, the percentage of positive cells showing nuclear fluorescence is determined and EC50 calculation done from concentration-effect curves by means of non-linear regression. For calibration, a positive (reference HDAC inhibitors like SAHA or NVP LBH-589) and a negative control were included.

The test system of series [2] is SKOV3 ovarian carcinoma cell line. The series can be described thus: Cellular cytotoxicity assay (Alamar Blue), SKOV3. The format is cell-based. The note with it: Homo sapiens. The method, then: (§1) The anti-proliferative activity of the chimeric HDAC and protein kinase inhibitory chimeric compounds of the present invention was evaluated using HeLa cervical carcinoma, A549 NSCLC, SKOV3 ovarian carcinoma, Cal27 head and neck cancer, K562 chronic myeloid leukemia (CML) and EOL1 acute hypereosinophilic myeloid leukemia, cell lines. For quantification of cellular proliferation/living cells the Alamar Blue (Resazurin) cell viability assay was applied (O'Brien et al. Eur Biochem. 267, 5421-5426, 2000). In this assay Resazurin is reduced to the fluorescent resorufin by cellular dehydrogenase activity, correlating with viable, proliferating cells. The examples were dissolved as 20 mM solutions in dimethylsulfoxide (DMSO) and subsequently diluted in semi-logarithmic steps. Cell lines were seeded at respective density into 96 well flat bottom plates in a volume of 200 μl per well. 24 h after seeding 1 μl each of the compound dilutions were added into each well of the 96 well plate. Each compound dilution was tested as quadruplicates. Wells containing untreated control cells were filled with […] DMEM medium containing 0.5% v:v DMSO. The cells were then incubated with the substances for 72 h at 37° C. in a humidified atmosphere containing 5% carbon dioxide. To determine the viability of the cells, 20 μl of an Resazurin solution (Sigma; 90 mg/l) were added. After 4 h incubation at 37° C. the fluorescence was measured at an extinction of 544 nm and an emission of 590 nm. For the calculation of the cell viability the emission value from untreated cells was set as 100% viability and the emission rates of treated cells were set in relation to the values of untreated cells. Viabilities were expressed as % values. The corresponding IC50 values of the compounds for cytotoxic activity are determined from the concentration-effect curves by means of non-linear regression.

The next series relates to A549 NSCLC cell line. The series can be described thus: Cellular cytotoxicity assay (Alamar Blue), A549. Format: cell-based. As to conditions: Homo sapiens. The method, then:
as §1

Series [3] relates to K562 chronic myeloid leukemia (CML) cell line. Kind of series: Cellular cytotoxicity assay (Alamar Blue), K562. The note with it: Homo sapiens, 72 h, only a range over the listed compounds is given, read-out: Cytotoxicity towards K562 CML cell line IC50. The format is cell-based. The procedure: as §1
Series [4] deals with HeLa cervical carcinoma cell line. Kind of series: Cellular cytotoxicity assay (Alamar Blue), HeLa. The format is cell-based. The note with it: Homo sapiens, 72 h. The procedure:
as §1

In another series the target is T1, PDGFRβ (Homo sapiens, UniProt P09619).
T1 construct: purchased ProQinase, Freiburg/Germany
T1 sequence (P09619 33-1106): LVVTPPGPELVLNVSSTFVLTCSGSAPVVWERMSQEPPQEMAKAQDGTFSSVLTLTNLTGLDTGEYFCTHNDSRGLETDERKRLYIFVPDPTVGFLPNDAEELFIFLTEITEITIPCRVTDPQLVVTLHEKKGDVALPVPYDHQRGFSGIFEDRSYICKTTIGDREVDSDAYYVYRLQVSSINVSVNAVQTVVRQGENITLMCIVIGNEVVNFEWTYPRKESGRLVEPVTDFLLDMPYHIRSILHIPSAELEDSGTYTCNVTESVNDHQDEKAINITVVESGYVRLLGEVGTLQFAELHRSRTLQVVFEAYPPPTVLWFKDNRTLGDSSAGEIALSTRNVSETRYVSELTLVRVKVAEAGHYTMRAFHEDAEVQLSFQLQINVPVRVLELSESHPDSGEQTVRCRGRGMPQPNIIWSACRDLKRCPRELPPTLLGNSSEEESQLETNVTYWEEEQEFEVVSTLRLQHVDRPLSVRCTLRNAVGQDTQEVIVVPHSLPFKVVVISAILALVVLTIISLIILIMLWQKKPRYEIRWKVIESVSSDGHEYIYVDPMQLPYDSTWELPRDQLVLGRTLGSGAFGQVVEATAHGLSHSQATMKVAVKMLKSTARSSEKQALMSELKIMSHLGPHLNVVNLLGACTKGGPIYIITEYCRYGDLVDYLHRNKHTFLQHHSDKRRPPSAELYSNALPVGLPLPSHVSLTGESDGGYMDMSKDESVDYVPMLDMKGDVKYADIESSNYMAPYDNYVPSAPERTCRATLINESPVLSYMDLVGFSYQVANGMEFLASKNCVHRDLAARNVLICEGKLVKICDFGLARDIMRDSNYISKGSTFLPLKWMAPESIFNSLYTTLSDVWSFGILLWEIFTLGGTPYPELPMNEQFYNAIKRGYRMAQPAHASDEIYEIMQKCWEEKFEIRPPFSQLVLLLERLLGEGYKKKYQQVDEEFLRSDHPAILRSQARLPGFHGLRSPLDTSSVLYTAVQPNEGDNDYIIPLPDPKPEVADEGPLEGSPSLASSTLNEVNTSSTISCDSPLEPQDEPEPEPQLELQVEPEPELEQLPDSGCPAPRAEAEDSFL
Kind of series: Biochemical flash-plate based kinase assay, PDGFRβ. As to conditions: only a range over the listed compounds is given; read-out: PDGFRβ inhibition IC50. The source says:
Active kinase proteins were either obtained from commercial suppliers (Abl, PDGF-Rβ ProQinase, Freiburg/Germany; AblT^315I: Millipore/Upstate, Billerica/USA; PKA: InvitroGen/Panvera, Carlsbad/USA) or prepared in-house (KDR, c-terminal kinase domain AA790-1356, HER2 c-terminal kinase domain, EGFR/HER1 C-terminal kinase domain). As substrates, poly-AGKY for Abl, AblT^315I and PDGF-Rβ (#P-1152 Sigma, Munich/Germany), poly-GluTyr for KDR, HER2 and EGFR/HER1 (#P-0275, Sigma, Munich/Germany) or a PKA substrate peptide for PKA (#12-394, Millipore/Upstate, Billerica/USA) were used. Into each well of a 96-well flashplate (#SMP-200 in the case of Abl, Abl T^315I, PDGF-Rβ, EGFR, HER2 and KDR, #SMP-103 in the case of PKA; Perkin Elmer, Waltham/USA) kinase protein was diluted into kinase assay buffer (50 mM HEPES pH 7.5, 3 mM MgCl2, 3 mM MnCl2, 1 mM DTT, 3 μM sodium orthovanadate, 5 μg/ml PEG 8000) containing the appropriate substrate (final volume 89 μl). DMSO vehicle or compounds are added as 1 μl/well prior to the initiation of the kinase reaction by 10 μl 1 mM [^33P]-γATP (4×10^5 cpm). Reactions were allowed to proceed for a time predetermined to be linear on a time versus phosphorylation plot (30 min for PKA, otherwise 80 min) and terminated with the addition of an equal volume of phosphoric acid (2% H3PO4 for 5 minutes). Plates were washed three times with 0.9% w/v NaCl and quantitated by liquid scintillation counting.

Series [5] relates to EOL1 acute hypereosinophilic myeloid leukemia cell line. The series can be described thus: Cellular cytotoxicity assay (Alamar Blue), EOL1. Format: cell-based. The note with it: Homo sapiens, 72 h, only a range over the listed compounds is given, read-out: Cytotoxicity towards EOL1 cell line IC50. The method, then: as §1
The test system of series [6] is Cal27 head and neck cancer cell line. The series can be described thus: Cellular cytotoxicity assay (Alamar Blue), Cal27. Format: cell-based. The note with it: Homo sapiens. The method, then: as §1
Series [7] has as its target T2, recombinant HDAC1 isolated from HEK293 cells with heterologous HDAC1 expression (Homo sapiens, UniProt Q13547).
T2 construct: made in house
The series can be described thus: Fluorimetric rHDAC1 activity assay. As to conditions: only a range of IC50 over the compounds given; read-out: rHDAC1 inhibitory activity IC50. Format: biochemical.

The mark [8] stands for this setting: SK-OV-3, 72 h, only a range over the listed compounds is given, read-out: Cytotoxicity towards SKOV3 cell line IC50.
Setting [9] is: A549, 72 h, only a range over the listed compounds is given, read-out: Cytotoxicity towards A549 NSCLC cell line IC50.
[10] abbreviates: only a range over the listed compounds is given, read-out: Cytotoxicity towards HeLa cervical cell line IC50.
The mark [11] stands for this setting: CAL-27, 72 h, only a range over the listed compounds is given, read-out: Cytotoxicity towards Cal27 cell line IC50.

Structures can show the parent of a compound that is named as a salt. Where two headings read alike, the source gives them in different places. A value given as a limit tells only on which side of the number the result lay.

T2 sequence (Q13547 whole entry): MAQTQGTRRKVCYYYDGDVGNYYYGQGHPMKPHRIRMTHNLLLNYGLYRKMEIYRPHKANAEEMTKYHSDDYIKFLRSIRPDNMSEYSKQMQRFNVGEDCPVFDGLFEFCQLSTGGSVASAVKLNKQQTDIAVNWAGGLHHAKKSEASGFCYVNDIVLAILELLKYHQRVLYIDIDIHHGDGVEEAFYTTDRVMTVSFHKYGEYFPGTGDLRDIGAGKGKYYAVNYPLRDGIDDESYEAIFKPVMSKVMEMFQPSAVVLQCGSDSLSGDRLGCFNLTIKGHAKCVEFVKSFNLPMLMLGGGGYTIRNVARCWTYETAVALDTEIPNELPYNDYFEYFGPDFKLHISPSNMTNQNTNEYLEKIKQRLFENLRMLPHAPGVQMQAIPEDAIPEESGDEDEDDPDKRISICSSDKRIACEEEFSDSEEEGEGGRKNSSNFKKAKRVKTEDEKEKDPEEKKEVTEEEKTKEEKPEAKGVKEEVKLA

On to `Nc1ccccc1NC(=O)c1ccc(-c2ccc3ncnc(Nc4ccc(OCc5cccc(F)c5)c(Cl)c4)c3c2)o1` [[5], 5-{4-[3-Chloro-4-(3-fluorobenzyloxy)phenylamino]-quinazolin-6-yl}furan-2-carboxylic acid (2-amino-phenyl)amide], for which the melting point was 250 °C (dec.). Also, in series [1], the EC50 is not below 3.65 µM. Further, the IC50 in series [2] (setting [8]) is not below 1e-06 M. In addition, the IC50 in the series with A549 NSCLC cell line (setting [9]) was not below 1.1e-06 M.
`Nc1ccccc1NC(=O)c1ccc(C(=O)Nc2cccc(Nc3nc(-c4cccnc4)cs3)c2)cn1` [[24], N^2-(2-aminophenyl)-N^5-(3-(4-(pyridin-3-yl)thiazol-2-ylamino)phenyl)pyridine-2,5-dicarboxamide]: the melting point is 148 to 150 °C. The IC50 in series [3] was 490 to 4070 nM.
For `Cc1ccc(NC(=O)c2ccc(C(=O)Nc3ccccc3N)cc2)cc1Nc1nccc(-c2cccnc2)n1` [[14], N-(2-Amino-phenyl)-N′-[4-methyl-3-(4-pyridin-3-yl-pyrimidin-2-ylamino)-phenyl]-terephthalamide compound with trifluoroacetic acid], the values for the IC50 (in series [4] (setting [10]); on PDGFRβ; in series [5]) were not below 1.15e-06 M, 2.1 to 71 µM and 3 to 780 nM, respectively.
On to `Nc1ccccc1NC(=O)/C=C/c1cccc(-c2ccc3ncnc(Nc4ccc(OCc5cccc(F)c5)c(Cl)c4)c3c2)c1` [[11], (E)-N-(2-aminophenyl)-3-(3-(4-(3-chloro-4-(3-fluorobenzyloxy)phenylamino)-quinazolin-6-yl)phenyl)acrylamide], for which the IC50 in series [6] (setting [11]) was not below 2.8e-07 M; with A549 NSCLC cell line (setting [9]), not below 1.1e-06 M; in series [7], not below 35.3 nM.
Compound `Cc1ccc(NC(=O)c2ccc(C(=O)NO)cc2)cc1Nc1nc(-c2cccnc2)cs1` [[20], N^1-hydroxy-N^4-(4-methyl-3-(4-(pyridin-3-yl)thiazol-2-ylamino)phenyl)terephthalamide] returned a melting point of 261 °C. Also, the EC50 in series [1] lay within 1.7 to 10 µM. Further, the IC50 in [4] (setting [10]) is not below 1.15e-06 M. Further, the IC50 on PDGFRβ fell in the range of 2.1 to 71 µM. Also, the IC50 in the series on A549 NSCLC cell line (setting [9]) is not below 2.95e-06 M.
For the compound `Nc1ccccc1NC(=O)c1ccc(C(=O)Nc2cccc(Nc3nc(-c4cccnc4)cs3)c2)cc1` [[18], N^1-(2-aminophenyl)-N^4-(3-(4-(pyridin-3-yl)thiazol-2-ylamino)phenyl)terephthalamide hydrate], at PDGFRβ, the IC50 was in the range of 2.1 to 71 µM.
Turning to `Cc1ccc(NC(=O)c2ccc(C(=O)Nc3ccccc3N)s2)cc1Nc1nccc(-c2cccnc2)n1` [[26], N^2-(2-aminophenyl)-N^5-(4-methyl-3-(4-(pyridin-3-yl)pyrimidin-2-ylamino)phenyl)thiophene-2,5-dicarboxamide], the melting point was 280.5 °C. Also, the IC50 in [3] lay in the range of 490 to 4070 nM. Also, in [5], the IC50 is 3 to 780 nM. Further, the IC50 in the series with A549 NSCLC cell line (setting [9]) is not below 2.95e-06 M.
Take `C#Cc1cccc(Nc2ncnc3ccc(S(=O)(=O)n4ccc(/C=C/C(=O)NO)c4)cc23)c1` [[45], 3-{1-[4-(3-Ethynylphenylamino)quinazoline-6-sulfonyl]-1H-pyrrol-3-yl}-N-hydroxy-acrylamide]: the IC50 was not below 5e-07 M in [4] (setting [10]), not below 5.6e-07 M in series [2] (setting [8]), 1.6e-07 to 8e-06 M in [6] (setting [11]) and not below 2.4e-07 M in the series on A549 NSCLC cell line (setting [9]).
Take `Cc1ccc(NCc2ccc(/C=C/C(=O)NO)cc2)cc1Nc1nccc(-c2cccnc2)n1` [[16], (E)-N-Hydroxy-3-(4-{[4-methyl-3-(4-pyridin-3-yl-pyrimidin-2-ylamino)-phenylamino]methyl}-phenyl)-acrylamide]: the melting point was 201 to 205 °C. Moreover, in series [1], the EC50 lay in the range of 1.7 to 10 µM. Besides, in series [4] (setting [10]), the IC50 was not below 1.15e-06 M. The IC50 in the series with A549 NSCLC cell line (setting [9]) is not below 2.95e-06 M. For the same compound, the IC50 in [7] was in the range of 77 to 1400 nM.
For `O=C(/C=C/c1ccc(-c2ccc3ncnc(Nc4ccc(OCc5cccc(F)c5)c(Cl)c4)c3c2)cc1)NO` [[8], (E)-3-(4-(4-(3-chloro-4-(3-fluorobenzyl-oxy)phenylamino)quinazolin-6-yl)phen-yl)-N-hydroxyacrylamide hydrochloride monohydrate], the IC50 was 9.1e-07 to 9.4e-06 M in series [4] (read-out: Cytotoxicity towards HeLa cervical cell line IC50 (M)); not below 1e-06 M in [2] (SK-OV-3, 72 h, read-out: Cytotoxicity towards SKOV3 cell line IC50 (M)); not below 2.8e-07 M in series [6] (CAL-27, 72 h, read-out: Cytotoxicity towards Cal27 cell line IC50 (M)); not below 1.1e-06 M in the series on A549 NSCLC cell line (A549, 72 h, read-out: Cytotoxicity towards A549 NSCLC cell line IC50 (M)); not below 35.3 nM in [7].

Values taken from patent US20110065734A1, “NOVEL BIFUNCTIONAL COMPOUNDS WHICH INHIBIT PROTEIN KINASES AND HISTONE DEACETYLASES” (4SC AG, priority 2007, published 2011).
